For this data set the following is noted: 101.3 kPa, Liquid.

For orientation: mass density means the mass of a sample divided by its volume. Broadly, the viscosity is the resistance of a fluid to flow.

The structures appear in SMILES notation. ± gives the expanded uncertainty stated by the source.

Regarding `CCCC(C)(C)O` [2-methyl-2-pentanol], the mass density reads like this: (303.15 K) 810.8 ± 0.9 kg/m3; (313.15 K) 802.4 ± 1 kg/m3; (323.15 K) 793.5 ± 1 kg/m3. The viscosity by setting is: (303.15 K) 2.93 ± 0.13 mPa·s; (313.15 K) 2.06 ± 0.1 mPa·s; (323.15 K) 1.46 ± 0.07 mPa·s.
On to `CCCC(C)CO` (configuration not stated) [2-methyl-1-pentanol], for which the mass density (303.15 K) was determined as 816.8 ± 1.2 kg/m3, the mass density (313.15 K) was found to be 809.5 ± 1.2 kg/m3 and the mass density (323.15 K) is on record as 801.5 ± 1.2 kg/m3. For the same compound, the viscosity (303.15 K) is 4.55 ± 0.21 mPa·s, the viscosity (313.15 K) was 3.18 ± 0.15 mPa·s and the viscosity (323.15 K) is reported as 2.25 ± 0.11 mPa·s.

The values above are taken from the NIST ThermoML archive (doi:10.1021/je0498053).
